Results taken from patent US9956181B2, “Composition of nanoformulated lycopene and method of using the composition” (priority 2015, dated 2018).

Test system: genes involved in osteoblast activity, osteoclastogenesis, apoptosis and oxidative stress enzymes
Assay: OVX rat study: qRT-PCR of bone marrow and flushed femur
Format: in vivo, Wistar rats
Settings: for decrease in concentration ratio of RANKL/OPG: P<0.05
Description: FIG. 10 depicts […] analysis of genes involved in osteoblast activity, osteoclastogenesis, apoptosis and oxidative stress enzymes, in accordance with embodiments of the present invention. Bone marrow (A) was analyzed for relative mRNA abundance of the osteoclastogenesis gene factor of activated T-cells (Nfatc1), while the flushed femur (B-D) was used to examine genes involved in osteoblast activity and function: type 1 collagen (Colla1), osteocalcin (Ocn), alkaline phosphatase (Alp), osteoprotegerin (Opg), and receptor activator for NF-kappa B ligand (Rankl) in sham-operated (SHAM) and ovariectomized (Ovx) rats treated with placebo or lycopene (15, 30 and 45 mg/kg body weight per day) or alendronate (ALN) (2.0 ug/kg body weight per day) for 12 weeks. Bone marrow (F-H) was analyzed for relative mRNA abundance of oxidative enzyme: glutathione peroxidase (GPx), superoxide dismutase (SOD) and catalase (CAT) in sham-operated (SHAM) and ovariectomized (Ovx) rats treated with placebo or lycopene (15, 30 and 45 mg/kg body weight per day) or alendronate (ALN) (2.0 ug/kg body weight per day) for 12 weeks. Bone marrow (I) and the flushed femur (J-L) were analyzed for relative mRNA abundance of apoptotic genes. Genes of interest including, B-cell lymphoma homologous antagonist/killer (Bak1), caspase-3 (Casp3) and -9 (Casp 9) in sham-operated (SHAM) and ovariectomized (Ovx) rats treated with placebo or lycopene (15, 30 and 45 mg/kg body weight per day) or alendronate (ALN) (2.0 ug/kg body weight per day) for 12 weeks. Bars represent the mean±SD for 10 rats in each group.
A total of 264 Wistar female rats, ˜6 months old, were supplied by the Animal House at King Fahd Medical Research Center (KFMRC), KAU. Rats were housed in individual cages and maintained at 22° C. with a 12-h light/dark cycle. During the study period, rats were given standard rodent chow diet ad libitum (commercial rat cubes containing approximately 18% protein, 3% fat, 77% carbohydrate, and 2% of an inorganic-salt mixture with a vitamin supplement by weight, supplied by Grain Silos and Flour Mills Organization, Jeddah, Saudi Arabia) and water until the onset of intervention. Prior to surgery, rats were anesthetized with ketamine [(10% ketamine hydrochloride (80 mg/kg body weight), Cayman Chemical, Michigan, USA] and xylazine [(2% xylazine hydrochloride, 10 mg/kg body weight), Sigma-Aldrich Co., St. Louis, USA]. A single longitudinal skin incision was made on the dorsal midline at the level of the kidneys and both ovaries were ligated and removed to produce an ovariectomy in all OVX group animals. A SHAM-operated group, acting as a negative control for the effect of ovariectomy on bone parameters, underwent bilateral laparotomy, during which the ovaries were exposed but remained intact. […] The lycopene-supplemented groups were given lycopene (15, 30 and 45 mg/kg body weight per day) dissolved in corn oil by daily intra-gastric administration for the experimental period of 12 weeks. The SHAM, OVX and ALN control groups were given the same volume of corn oil without lycopene treatment. […] A 12-week randomized placebo-controlled study in order to examine the protective effects of lycopene supplementation on bone mass and fragility in OVX rats was concluded. Prior to surgery, body weight and bone mineral density (BMD) were obtained for all animals. Rats were randomized using a computer-generated randomization code into one of six groups: (1) sham-operated (SHAM; n=44); (2) ovariectomized control (OVX; n=44); (3) OVX lycopene-supplemented (15 mg/kg body weight per day) (n=44); (4) OVX lycopene-supplemented (30 mg/kg body weight per day) (n=44); (5) OVX lycopene-supplemented (45 mg/kg body weight per day) (n=44) and (6) OVX alendronate-treated (ALN) [2.0 μg/kg body weight per day subcutaneously (sc)] (n=44). Alendronate is an anti-resorptive agent for the treatment of osteoporosis and was used as a positive therapy control. […]

[1] = flushed femurs, lycopene treatment

Structure (SMILES): CC(C)=CCC/C(C)=C/C=C/C(C)=C/C=C/C(C)=C/C=C/C=C(C)/C=C/C=C(C)/C=C/C=C(\C)CCC=C(C)C [lycopene]
- Alp, Colla1 and Ocn mRNA (OVX rats, lycopene treatment): enhancing
- RANKL expression (all three doses of lycopene): down-regulated
- Bak1 mRNA abundance compared to OVX control (bone marrow, lycopene treatment): up-regulated
- OVX-induced increase in Nfatc1 mRNA (bone marrow, lycopene, 12 weeks, restored to SHAM level): suppressed
- Casp 9 and Casp 3 gene expression [1]: did not change
- Colla1 gene expression [1]: remained elevated
- OPG expression (higher doses of lycopene): decreased
- decrease in concentration ratio of RANKL/OPG (lycopene 30 mg/kg body weight per day): 18.9%
- decrease in concentration ratio of RANKL/OPG (lycopene 45 mg/kg body weight per day): 38.3%
- GPX-1, CAT and SOD relative expression (lycopene treatment, to a level higher than SHAM): increased
